Measured values as given in publication PMC4426677, “Tubulin structure-based drug design for the development of novel 4β-sulfur-substituted podophyllum tubulin inhibitors with anti-tumor activity” (Scientific Reports, 2015).
“Also recorded” adds a separate entry of the source. Read-outs that look alike come from different tables or passages of the source.

How the values were obtained:
[1] = test system: human hepatocellular liver carcinoma HepG2; assay: MTT cytotoxicity assay, HepG2; type: cell-based; settings: read-out: Cytotoxic activity (IC50) HepG2
Description: (§1) Cytotoxicity assays were performed on the human gastric carcinoma cell line BGC-823, the human lung adenocarcinoma cell line A549, the human hepatocellular liver carcinoma HepG2, and the normal human hepatic immortal cell line HL-7702. Cells (3500–13,000) were seeded into 96-well microtest plates in 100 μL of culture medium per well (Falcon, CA). The cells were treated in triplicate with a gradient concentration of test compounds and incubated at 37 °C in RPMI-1640 with 100 mg L^−1 kanamycin and 10% (v/v) fetal bovine serum in a humidified atmosphere containing 5% CO2 for 48 h. The plating efficiencies of the untreated cells varied between experiments with values ranging from 14 to 31% for the HL-7702 cells. For all cell lines, microculture tetrazolium [3-(4, 5-dimethylthiazol-2-yl)−2, 5-diphenyltetrazolium bromide, MTT; Sigma, St. Louis, MO] assay was performed to measure cytotoxic effects. […] The initial seeding densities varied among the cell lines to ensure a final absorbance reading in control (untreated) cultures within the range of 0.6–0.8 A492 units. […] Each test was performed in triplicate, and the absorbance readings between the triplicates varied by no more than 5%.
(§2) Data presented as means ± SD. Statistical analyses were performed by the analysis of variance (ANOVA). All statistical analyses were performed using Origin version 8.0 ([…], OriginLab Corp., Northampton, MA, USA). Sigmoidal dose responses and non-linear regression analyses were undertaken to identify half-maximal concentrations for each of the drugs. To evaluate differences in IC50 concentrations, analysis of variance combined with Tukey’s multiple range test was used.

[2] = test system: human gastric carcinoma cell line BGC-823; assay: MTT cytotoxicity assay, BGC-823; type: cell-based; settings: read-out: Cytotoxic activity (IC50) BGC-823
Description: as §1, §2

[3] = test system: A549 cells; assay: Immunofluorescence staining of tubulin and nuclei; type: cell-based, human; settings: 1 μM, 12 hours
Description: (§3) The degree of tubulin polymerization was evaluated through pellet mass formation in centrifugation assays in the presence of stoichiometric and semi-stoichiometric concentrations of each lignan.
Cells were fixed with 4% paraformaldehyde in phospate buffered saline (PBS), permeabilized with 0.5% Triton X-100 in PBS, and then tubulin was immunostained with monoclonal antibody to tubulin (B5-1-2, Sigma) followed by fluorescein 5-isothiocyanate (FITC) conjugated secondary antibody. Nuclei were labeled with 4′, 6-diamidino-2-phenylindole (DAPI). Fluorescence labeled tubulin and nuclei were observed using a Zeiss Axioplan fluorescence microscope, and images were captured by a XL16 Excel cooled digital camera controlled by the Dage Exponent software (Dage-MTI). Final images were prepared using Adobe Photoshop. The cells were then processed for immunofluoscence staining and confocal microscopy (× 600).

[4] = test system: human lung adenocarcinoma cell line A549; assay: MTT cytotoxicity assay, A549; type: cell-based; settings: read-out: Cytotoxic activity (IC50) A549
Description: as §1, §2

[5] = MTT cytotoxicity assay, normal human cells HL-7720; type: cell-based; settings: drug exposure 48 h, mean ± SD (n = 3), read-out: Cytotoxic activity (IC50) HL-7720
Description: as §1, §2

[6] = test system: calf brain tubulin; assay: Tubulin assembly inhibition, centrifugation assay; type: biochemical; settings: 30 min at 37 °C, read-out: GI50, inhibition of tubulin polymerization
Description: as §3
Purification of calf brain tubulin and chemicals were followed as previously described by Andreu[20]. Ligands were dissolved in DMSO at 20 mM and kept at −80 °C. Work solutions were done in DMSO and kept at −20 °C. The 50% inhibitory ligand concentration of tubulin assembly was determined with a centrifugation assay. Tubulin was equilibrated prior to use in 3.4 M glycerol, 1 mM EGTA, 0.1 mM GTP, pH 7.0, buffer through a 25 cm × 0.9 cm Sephadex G-25 column. Aggregates were removed by a centrifugation at 90000 g × 10 min in a TLA 120 rotor at 4 °C in an Optima TLX centrifuge. Tubulin concentration was determined as described by Andreu[21]. Tubulin was kept at 4 °C, and 0.9 mM GTP and 6 mM MgCl2 were added to the sample. The solution was distributed in 200 μL polycarbonate tubes for the TL100 rotor. […] Microtubules were separated from unassembled tubulin by a centrifugation at 90000 g × 10 min in a TLA100 rotor at 37 °C in an Optima TLX centrifuge. […] The 50% inhibitory ligand concentration of tubulin assembly was determined with a centrifugation assay that measured the decrease in the concentrations of microtubules assembled in the presence of different concentrations of the compound.

[7] = target: tubulin; assay: Surface plasmon resonance binding to immobilized tubulin; settings: 1:1 Langmuir model, HBS-T buffer pH 7.4; read-out: equilibrium dissociation constant (KD value), SPR
Description: as §3
Based on the surface plasmon resonance (SPR) technology, the binding affinity of compounds to tubulin was determined with the ProteOn^TM XPR36 Protein Interaction Array System (Bio-Rad, Hercules, CA). For this purpose, tubulin was dissolved in 10 mM sodium acetate buffer (pH 3.5) and immobilized to the ProteOn^TM GLH sensor chip with the ProteOn^TM amine coupling kit. The final immobilization level was 8000 RU (Response unit). […] Data were analyzed with the ProteOn^TM Manager software, fitted to the 1:1 Langmuir model.

[8] = test system: A549 cells; assay: Cell cycle analysis (PI staining, flow cytometry); type: cell-based, human; settings: for G2/M phase arrest ratio: after 24 h incubation until end of incubation
Description: Tubulin inhibitors block cell cycle progression in mitosis at the G2/M phase, and a prolonged mitotic arrest triggers various apoptotic pathways. […] After 24 h incubations, the G2/M phase arrest ratio remained at around 80% and 90% until the end of the incubation.
Cell cycle arrest detection in A549 cells using propidium iodide (PI) double staining treatment with different concentrations of 4-TG-PTOX (i.e., 0.1, 1, and 5 μM) for 6, 12, 24, 48 h, respectively. The A549 cell line was used for cell cycle analysis. Cells were treated in triplicate with a gradient concentration of test compounds and incubated at 37 °C in RPMI-1640 with 100 mg L^−1 kanamycin and 10% (v/v) fetal bovine serum in a humidified atmosphere containing 5% CO2 for 48 h. Untreated and drug-treated cells were centrifuged and fixed overnight in 70% ethanol at 4 °C. They were then washed three times with PBS, incubated for 1 h with 1 mg/ mL RNase A and […] propidium iodide at room temperature, and analyzed with a FACSCalibur flow cytometer (BD, USA).

[9] = test system: A549 cells; assay: Cell apoptosis analysis (annexin V/PI flow cytometry); type: cell-based, human; settings: for maximum level of apoptosis: 48 h
Description: After 48 h of treatment with 4-TG-PTOX, the maximum levels of apoptosis reached were 63% and 67% at 4-TG-PTOX concentrations of 1 and 5 µM, respectively.
Cell apoptosis-inducing detection in A549 cells treatment with different concentrations of 4-TG-PTOX (i.e., 0.1, 1, and 5 μM) for 6, 12, 24, 48 h, respectively. In the early stages of apoptosis, phosphatidylserine (PS) was translocated from the inside of the cell membrane to the outside. Annexin V, a calcium dependent phospholipid-binding protein associated with a high affinity for phosphatidylserine, was used to detect early apoptotic cells. Propidine Iodide (PI) was a red fluorescent dye and stained cells that had lost membrane integrity. So, cells stained with FITC-annexin V and PI were discriminated necrotic cells (Q1, Annexin-/PI +), late apoptotic cells (Q2, Annexin +/PI+), intact cells (Q3, Annexin -/PI -) and early apoptotic cells (Q4, Annexin+/PI -).

[10] = HepG2, MTT, drug exposure 48 h, mean ± SD (n = 3)
[11] = BGC-823, MTT, drug exposure 48 h, mean ± SD (n = 3)
[12] = A549, MTT, drug exposure 48 h, mean ± SD (n = 3)

Row | Structure (SMILES) | IC50 [1, 10] | IC50 [2, 11] | effect on cellular microtubules (immunofluorescence) [3] | IC50 [4, 12] | IC50 at 48 h [5] | GI50 [6] | effect on nucleus (DAPI) [3] | Kd [7] | G2/M phase arrest ([8]; A549, 0.1 μM) | G2/M phase arrest ratio ([8]; A549, 1 μM) | G2/M phase arrest ratio ([8]; A549, 5 μM) | ratio of apoptotic cells ([9]; A549, 0.1 μM) | maximum level of apoptosis ([9]; A549, 1 µM) | maximum level of apoptosis ([9]; A549, 5 µM) | IC50 ([1]; HepG2, 48 h) | IC50 ([2]; BGC-823, 48 h) | IC50 ([4]; A549, 48 h)
1 | COc1cc2c(c(OC)c1OC)-c1ccc(OC)c(=O)cc1[C@@H](NC(C)=O)CC2 [Colchicines, colchicine] | 13.2 ± 0.88 µM | 12.2 ± 1.26 µM | inhibited tubulin polymerization | 12.2 ± 0.76 µM | 6.42 ± 1.03 µM | – | – | – | – | – | – | – | – | – | – | – | –
2 | COc1cc(C2c3cc4c(cc3C(Sc3ncnc5nc[nH]c35)C3COC(=O)C23)OCO4)cc(OC)c1OC (centres unmarked) [Compound 4-MP-PTOX] | 1.14 ± 1.07 µM | 8.72 ± 3.15 µM | anti-microtubule activity was observed; also recorded: inhibited tubulin polymerization | 1.12 ± 0.35 µM | 11.3 ± 0.57 µM | < 2 µM | not damaged | 8.7 µM | – | – | – | – | – | – | – | – | –
3 | COc1cc(C2c3cc4c(cc3C(Sc3nc(N)nc5nc[nH]c35)C3COC(=O)C23)OCO4)cc(OC)c1OC (centres unmarked) [Compound 4-TG-PTOX] | 0.3 ± 0.34 µM | 4.4 ± 1.55 µM | anti-microtubule activity was observed; also recorded: inhibited tubulin polymerization | 0.57 ± 0.92 µM | 13.5 ± 2.41 µM | < 1 µM | not damaged | 6.2 µM | arrested after 12 h and strongly arrested after 24 and 48 h | around 80% | ~90% | unaffected | 63% | 67% | – | – | –
4 | COC(=O)Nc1nc2ccc(C(=O)c3cccs3)cc2[nH]1 [Nocodazole, nocodazole] | – | – | – | – | 8.51 ± 1.73 µM | – | – | – | – | – | – | – | – | – | 18.4 ± 3.71 µM | 38.9 ± 3.12 µM | 27.4 ± 2.92 µM
5 | COc1cc([C@@H]2c3cc4c(cc3[C@H](O)[C@H]3COC(=O)[C@H]23)OCO4)cc(OC)c1OC [PTOX, podophyllotoxin] | 8.36 ± 1.42 µM | 18.3 ± 2.22 µM | – | 20.2 ± 2.75 µM | 4.31 ± 1.46 µM | – | – | – | – | – | – | – | – | – | – | – | –
